For experiment [1], the target named is T1, rat isoform of TRPM8 channels (Rattus norvegicus, UniProt Q8R455).
T1 construct: expressed in transfected cells
Briefly: Ca2+ fluorometric assay, block of menthol-evoked responses in HEK293 cells stably expressing rTRPM8. In kind it is cell-based. The note with it: for potency compared with AMTB: calcium fluorometric assay; for Efficacy: percentage of inhibition of menthol evoked currents at the maximum concentration used (50 µM). As to the method:
The inhibitory activity of the 21 selected compounds over TRPM8 was challenged by Ca^2+ fluorometric assays using HEK293 cells stably expressing the rat isoform of TRPM8 channels. Menthol and AMTB were used as reference agonist and antagonist, respectively. The compounds were initially tested at three different concentrations (50 μM, 5 μM, and 0.5 μM) to assess their ability in blocking 100 μM menthol evoked currents.
Cells, HEK-293 cells stably expressing rTRPM8 or hTRPV1, were cultured in a monolayer in Earle’s minimum essential medium with Earle’s salts supplemented with 10% fetal calf serum, 1% nonessential amino acids, 2 mM L-glutamine, 100 µg streptomycin/mL, 100 U penicillin/mL, and 0.4 µg/mL puromycin (referred to as Puro-EMEM) and kept at 37 °C in a humidified atmosphere of 5% CO2 in a suitable incubator (STERI-CyCLE CO2 Incubator Hepa Class 100, Thermo Electrón Corporation, Waltham, MA, USA). Cells were stored under liquid nitrogen and used for 15 generations from unfreezing.
For fluorometric experiments, HEK-293 cells stably expressing rTRPM8 or hTRPV1 were detached by means of Trypsin/EDTA solution, resuspended in DMEM-10%FCS and seeded at a concentration of 2 × 10^4 cells/mL.
(§1) Briefly human embryonic kidney cell line (HEK) stably transfected with rTRPM8 or hTRPV1 were seeded in 96-well plates at a cell density of 30,000 cells. After 2 days the medium was replaced with 100 μL of the dye loading solution Fluo-4 NW supplemented with probenecid 2.5 mM and incubated 1 h at 37 °C. The TRP ion channel activity was measured using POLASTAR plate reader (BMG Labtech, Ortenberg, Germany) setting the excitation wavelength at 485 nm and emission wavelength at 520 nm. The baseline fluorescence was recorded for 3 cycles before the addition of the vehicle, compound at different concentrations, and the antagonist, 10 μM AMTB for TRPM8 and Ruthenium red for TRPV1. Fluorescence intensity was recorded during 7 more cycles and agonist 100 μM menthol for TRPM8 or 10 μM capsaicin for TRPV1 was added. Fluorescence intensity was recorded during 10 more cycles.
Data analysis: The Z-factor was calculated in each assay using the following equation: […]. […] A decrease in menthol signal was expressed as a percentage of inhibition (%). All data are expressed as the mean ± standard deviation (SD). Data are expressed as the concentration exerting a half-maximal inhibition of agonist-induced (Ca^2+)^i elevation (IC50), which was calculated again using GraphPad Prism® software (GraphPad Prism 5, Graphpad Software, San Diego, CA, USA). The equation used was Y = Bottom + (Top − Bottom)/(1 + 10^((LogEC50-X) ^× HillSlope)), with the restriction of the minimum (Bottom = 0). All determinations were performed in triplicate (n = 3) in 3 independent experiments (n= 3).

The target of another experiment is T2, rTRPM8 (Rattus norvegicus, UniProt Q8R455).
T2 construct: expressed in transfected cells
T2 sequence (Q8R455 whole entry): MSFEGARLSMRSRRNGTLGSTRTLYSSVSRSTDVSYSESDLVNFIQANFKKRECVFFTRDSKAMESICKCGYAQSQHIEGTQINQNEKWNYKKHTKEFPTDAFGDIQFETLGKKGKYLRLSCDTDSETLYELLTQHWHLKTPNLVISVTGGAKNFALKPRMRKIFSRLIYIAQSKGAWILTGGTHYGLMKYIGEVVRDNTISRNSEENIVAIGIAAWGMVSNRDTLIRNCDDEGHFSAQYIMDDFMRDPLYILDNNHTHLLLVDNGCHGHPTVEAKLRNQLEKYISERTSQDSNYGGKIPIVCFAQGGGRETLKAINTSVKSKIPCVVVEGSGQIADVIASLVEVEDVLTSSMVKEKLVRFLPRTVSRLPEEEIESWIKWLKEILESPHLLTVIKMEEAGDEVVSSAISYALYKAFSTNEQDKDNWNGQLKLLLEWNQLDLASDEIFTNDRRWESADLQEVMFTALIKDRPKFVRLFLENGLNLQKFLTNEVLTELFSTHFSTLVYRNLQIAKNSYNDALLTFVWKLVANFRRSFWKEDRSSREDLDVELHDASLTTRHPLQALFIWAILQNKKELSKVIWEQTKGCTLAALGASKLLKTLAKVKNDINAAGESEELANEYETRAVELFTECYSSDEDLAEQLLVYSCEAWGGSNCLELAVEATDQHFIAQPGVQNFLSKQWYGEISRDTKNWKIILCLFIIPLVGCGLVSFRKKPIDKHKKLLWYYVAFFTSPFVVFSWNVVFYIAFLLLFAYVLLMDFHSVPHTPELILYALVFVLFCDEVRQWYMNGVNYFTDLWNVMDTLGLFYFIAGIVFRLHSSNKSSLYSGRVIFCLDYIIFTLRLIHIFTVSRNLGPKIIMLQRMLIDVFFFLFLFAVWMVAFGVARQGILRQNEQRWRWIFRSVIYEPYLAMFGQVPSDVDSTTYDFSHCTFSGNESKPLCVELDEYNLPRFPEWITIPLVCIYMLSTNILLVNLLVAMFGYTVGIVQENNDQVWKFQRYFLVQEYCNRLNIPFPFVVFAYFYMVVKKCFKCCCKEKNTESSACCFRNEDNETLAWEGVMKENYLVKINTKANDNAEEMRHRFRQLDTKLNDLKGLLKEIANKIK
Briefly: Whole-cell patch-clamp on HEK-rTRPM8 cells, menthol-evoked currents. In kind it is cell-based. As to the method:
Dose-response curves were then recorded to evaluate the compound relative potencies.
Whole-cell patch-clamp recordings from HEK-rTRPM8 cells were carried out 2 days after seeding on 12-mm Ø glass coverslips treated with poly-L-lysine solution (Sigma Aldrich, Madrid, Spain); the intracellular pipette solution contained (in mM) 150 NaCl, 5 EGTA, 3 MgCl2, and 10 HEPES, adjusted to pH 7.2 with NaOH, and the extracellular solution contained (in mM) 150 NaCl, 6 CsCl, 1.5 CaCl2, 1 MgCl2, 10 D-glucose and 10 HEPES, adjusted to pH 7.4 with NaOH. The TRPM8 activity was measured by the application of two pulses of 100 μM menthol in a time interval of 2 min and 30-s perfusion of the different compound concentrations before the second menthol pulse.
The series resistance was <10 MΩ and to minimize voltage errors was compensated to 60–80%. All measurements were performed at 24–25 °C. Cell capacitance was measured and used to estimate the current density (J, pA/pF).
For the whole-cell patch-clamp experiments, results are expressed as the percentage of the remaining activation of the TRPM8 channel. This is calculated by normalizing the ratio (p2/p1) of testing conditions to the ratio (p2/p1) of the control condition. The analysis of the data was performed by GraphPad 6.0, the ordinary one-way ANOVA analysis followed by the post hoc Bonferroni test established multiple comparisons, and the ROUT method (Q = 10%) identified data outliers. […] Paired or unpaired Student’s t-tests were also used for data comparison between two groups. All data are expressed as the mean ± standard error of the mean (SEM) (n = 12–15).

Experiment [2] relates to oxaliplatin-induced cold allodynia. Put plainly: Oxaliplatin-induced cold hypersensitivity, acetone drop test. In kind it is in vivo, mice. Conditions: for effect on oxaliplatin-induced cold hypersensitivity: acetone drop test. The text has this:
TRPM8 antagonism is deeply related to analgesic in vivo effects and has been proposed as a suitable pharmacological strategy for the treatment of chronic pain, migraine, and painful syndromes. TRPM8 antagonists are particularly known to counteract the chemotherapy-induced neuropathic pain evoked by oxaliplatin [24, 27, 28, 29]. For these reasons we challenged compound 14 (BB 0322703) in vivo using the oxaliplatin-induced cold hypersensitivity assay. […]. […] In particular, a correspondence between the in vitro potency and the effective in vivo dose is typical for TRPM8 modulators in the oxaliplatin-induced neuropathic pain model. Extremely in-vitro potent compounds are effective also at lower doses […]. When in vitro potency is reduced, as also in the present case, in vivo efficacy decreases correspondingly. […] This is also the case of compound 14, which for these reasons could be considered a promising hit-compound for the development of new chemotypes as TRPM8 antagonists and a pharmacological tool for the treatment of neuropathic pain.
[…]. Care was taken to minimize the number of animals used and the pain and stress they experienced. All experimental procedures were approved by the Animal Care and Use Committees of Universidad Miguel Hernández and the regional government and were conducted according to the ethical principles of the International Association for the Study of Pain (IASP) for the evaluation of pain in conscious animals, the European Parliament and the Council Directive (2010/63/EU) and the Spanish law (RD 53/2013). Housing conditions were maintained at 21 ± 1 °C and 55 ± 15% relative humidity in a controlled light/dark cycle (light on between 8:00 a.m. and 8:00 p.m.). Animals had free access to food and water except during the habituation or the evaluation of nociceptive sensitivity. All parts of the study concerning animal care were performed under veterinary control.
Compound 14 (BB 0322703) was dissolved in 2.5% dimethyl sulfoxide (Merck, Darmstadt, Germany) and 2.5% cremophor EL (Merck) diluted in saline. […]
Oxaliplatin-induced neuropathic pain was induced by repeated oxaliplatin administration (Cat. No. 2623, Tocris, Bristol, UK). […] Nociceptive sensitivity was assessed before oxaliplatin treatment and 3 days after the last oxaliplatin administration.
Cold chemical thermal sensitivity was assessed using the acetone drop method as previously described. […] The responses were measured for 1 min with a digital stopwatch. For each measurement, the paw was sampled three times and the mean was calculated. […]
Behavioral data were analyzed with a repeated-measures ANOVA followed by a post-hoc Tukey test (GraphPad Prism 7.04, GraphPad Software Inc.). p-values lower than 0.05 were considered statistically significant.

For a further experiment, the target named is T3, hTRPV1 (Homo sapiens, UniProt Q8NER1).
T3 construct: expressed in transfected cells
T3 sequence (Q8NER1 whole entry): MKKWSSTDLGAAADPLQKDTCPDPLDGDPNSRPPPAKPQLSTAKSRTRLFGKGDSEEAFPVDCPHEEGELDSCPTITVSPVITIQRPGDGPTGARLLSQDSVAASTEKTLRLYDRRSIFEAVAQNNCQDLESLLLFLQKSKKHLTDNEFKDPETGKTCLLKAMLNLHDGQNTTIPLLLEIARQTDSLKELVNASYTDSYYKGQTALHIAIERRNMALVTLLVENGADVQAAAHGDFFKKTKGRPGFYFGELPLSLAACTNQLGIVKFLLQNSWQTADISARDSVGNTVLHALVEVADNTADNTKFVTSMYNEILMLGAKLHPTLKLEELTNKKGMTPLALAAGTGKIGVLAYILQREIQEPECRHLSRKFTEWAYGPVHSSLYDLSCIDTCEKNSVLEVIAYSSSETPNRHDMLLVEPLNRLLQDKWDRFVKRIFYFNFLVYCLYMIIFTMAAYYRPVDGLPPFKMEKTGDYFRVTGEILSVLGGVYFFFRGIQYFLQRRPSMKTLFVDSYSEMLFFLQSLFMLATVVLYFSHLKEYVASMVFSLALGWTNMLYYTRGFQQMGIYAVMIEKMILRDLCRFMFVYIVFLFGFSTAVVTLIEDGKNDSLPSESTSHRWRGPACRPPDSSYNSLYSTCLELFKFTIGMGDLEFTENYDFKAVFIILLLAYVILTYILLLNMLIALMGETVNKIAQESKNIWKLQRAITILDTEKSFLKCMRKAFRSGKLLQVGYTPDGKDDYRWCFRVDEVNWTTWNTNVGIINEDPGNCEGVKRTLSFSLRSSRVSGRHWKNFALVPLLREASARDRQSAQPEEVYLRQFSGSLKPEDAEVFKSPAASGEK
Put plainly: Ca2+ fluorometric assay on HEK-293 cells stably expressing hTRPV1 (selectivity). In kind it is cell-based. On the procedure:
Cells, HEK-293 cells stably expressing rTRPM8 or hTRPV1, were cultured in a monolayer in Earle’s minimum essential medium with Earle’s salts supplemented with 10% fetal calf serum, 1% nonessential amino acids, 2 mM L-glutamine, 100 µg streptomycin/mL, 100 U penicillin/mL, and 0.4 µg/mL puromycin (referred to as Puro-EMEM) and kept at 37 °C in a humidified atmosphere of 5% CO2 in a suitable incubator (STERI-CyCLE CO2 Incubator Hepa Class 100, Thermo Electrón Corporation, Waltham, MA, USA). Cells were stored under liquid nitrogen and used for 15 generations from unfreezing. […]
as §1, with “After 2 days the medium was replaced with 100 μL of the dye loading solution Fluo-4 NW supplemented with probenecid 2.5 mM and incubated 1 h at 37 °C.” left out, “cycles. […]” for “cycles.”

Several values for one entry are separate records, joined by “and”; a condition that tells them apart may be missing. Equal entries are not always repeated. Where two headings read alike, the source gives them in different places.

The IC50 is the concentration at which inhibition is half-maximal. Usually EC50 stands for the concentration needed to bring the measured effect to its halfway point.

T1 sequence (Q8R455 whole entry, canonical isoform): as the sequence (Q8R455 whole entry) above

As to `NCC1CCCN(CCc2cccc(F)c2)C1` (centres unmarked) [Compound 1], in experiment [1], inhibition was half-maximal at 10.2 ± 1.31 µM (IC50), the “potency compared with AMTB” value is reported as “comparable potencies to AMTB” and the Efficacy came out at 85%.
For `Cc1cccc(COc2ccccc2C(=O)N(CCCN)Cc2cccs2)c1` [AMTB, reference compound], the IC50 in experiment [1] (100 μM menthol, HEK293 rTRPM8, mean ± SD of at least three independent measurements, read-out: IC50) turned out to be 7.15 ± 1.24 µM. The same compound displayed an Efficacy in experiment [1] of 100%.
Consider `Cc1nn(C)c(Oc2ccc(Cl)cc2)c1-c1noc(C)c1C(=O)Nc1ccc(F)cc1` [Compound 5], for which, in experiment [1], the half-maximal inhibitory concentration (IC50) is 11.1 ± 1.32 µM, the “potency compared with AMTB” value was “comparable potencies to AMTB” and the Efficacy is reported as 95%.
Regarding `CCOC(=O)C(C)Nc1ccccc1C(=O)NC(C)c1ccccc1` [Compound 14, Ethyl (R)-N-[2-{[(1-Phenylethyl)amino]carbonyl}phenyl]-2-aminopropionic acid], the IC50 stood at 0.25 ± 0.15 µM in experiment [1] and 1.25 ± 0.26 µM on rTRPM8. Moreover, the “IC50/potency fold difference versus AMTB” value in experiment [1] (calcium fluorometric IC50 compared with reference AMTB) is recorded as “about 30 fold”. In experiment [1], the Efficacy amounted to 100%. Also, the “effect on TRPM8 menthol-evoked currents” value at rTRPM8 (compound at 10 μM, 100 μM menthol) is given as “abolishing the TRPM8 menthol-evoked currents”. Besides, the “Hill slope, patch-clamp inhibition” value at rTRPM8 (fit of dose-response curve, Top = 100) is recorded as −1.23. In experiment [2] (30 μM dose (abstract)), the “efficacy in cold allodinya model” value is on record as “showing pharmacological efficacy”. Also, the “effect on oxaliplatin-induced cold hypersensitivity” value in experiment [2] (mice, intraplantar 10 µg) is on record as “did not show significant modification of their nociceptive sensitivity”; in experiment [2] (mice, intraplantar dose of 30 µg, p < 0.05 vs. Oxaliplatin), “significant inhibition of this cold hypersensitivity”. Also, the “duration of inhibition of cold hypersensitivity” value in experiment [2] (mice, intraplantar dose of 30 µg) was “at least 1 h”.
For `COC(=O)C1=C(Nc2ccccc2F)SC(=Cc2ccccc2OCC#CC(C)(O)c2ccccn2)C1=O` (centres unmarked) [Compound 19], in experiment [1], the IC50 is 5.52 ± 1.45 µM, the “potency compared with AMTB” value is “comparable potencies to AMTB” and the Efficacy came to 90%. Moreover, on hTRPV1 (agonist, normalized to capsaicine 10 μM = 100%, brackets 95% confidence interval, read-out: EC50 TRPV1 activation), the EC50 was 1.34 to 1.68 µM and 1.34 µM. Besides, at hTRPV1 (fit of dose-response curve, Bottom = 0), the “Hill Slope, TRPV1 activation” value was found to be 0.67.
